Test results from the supplement of paper PMC13380429.
± gives the standard deviation of the averaged measurements.

Columns and labels:
Conditions in all cases: 72 h
HepG2 [1] = assay: drug sensitivity score (DSS) for viability; higher = more toxic; extreme values may be limits of the assay
U2OS [2] = assay: as above
Vero E6 [3] = assay: as above
Caco-2 [4] = assay: as above
Calu-3 [5] = assay: as above
HepG2 [6] = assay: cell viability relative to DMSO; higher = less toxic
U2OS [7] = assay: as above
Vero E6 [8] = assay: as above
Caco-2 [9] = assay: as above
Calu-3 [10] = assay: as above
HepG2 [11] = assay: relative viability EC50 (midpoint between 100% and the lowest measured viability); higher = less toxic
U2OS [12] = assay: as above
Vero E6 [13] = assay: as above
Caco-2 [14] = assay: as above
Calu-3 [15] = assay: as above

SMILES | drug sensitivity score (HepG2 [1]) | drug sensitivity score (U2OS [2]) | drug sensitivity score (Vero E6 [3]) | drug sensitivity score (Caco-2 [4]) | drug sensitivity score (Calu-3 [5]) | cell viability (HepG2 [6]; 1 nM) [%] | cell viability (HepG2 [6]; 10 nM) [%] | cell viability (HepG2 [6]; 100 nM) [%] | cell viability (HepG2 [6]; 1000 nM) [%] | cell viability (HepG2 [6]; 10000 nM) [%] | cell viability (U2OS [7]; 1 nM) [%] | cell viability (U2OS [7]; 10 nM) [%] | cell viability (U2OS [7]; 100 nM) [%] | cell viability (U2OS [7]; 1000 nM) [%] | cell viability (U2OS [7]; 10000 nM) [%] | cell viability (Vero E6 [8]; 1 nM) [%] | cell viability (Vero E6 [8]; 10 nM) [%] | cell viability (Vero E6 [8]; 100 nM) [%] | cell viability (Vero E6 [8]; 1000 nM) [%] | cell viability (Vero E6 [8]; 10000 nM) [%] | cell viability (Caco-2 [9]; 1 nM) [%] | cell viability (Caco-2 [9]; 10 nM) [%] | cell viability (Caco-2 [9]; 100 nM) [%] | cell viability (Caco-2 [9]; 1000 nM) [%] | cell viability (Caco-2 [9]; 10000 nM) [%] | cell viability (Calu-3 [10]; 1 nM) [%] | cell viability (Calu-3 [10]; 10 nM) [%] | cell viability (Calu-3 [10]; 100 nM) [%] | cell viability (Calu-3 [10]; 1000 nM) [%] | cell viability (Calu-3 [10]; 10000 nM) [%] | relative viability EC50 (HepG2 [11]) [µM] | relative viability EC50 (U2OS [12]) [µM] | relative viability EC50 (Vero E6 [13]) [µM] | relative viability EC50 (Caco-2 [14]) [µM] | relative viability EC50 (Calu-3 [15]) [µM]
CN(C)c1ccc(C(=C2C=CC(=[N+](C)C)C=C2)c2ccc(N(C)C)cc2)cc1 [crystal-violet] | 15.7 | 15.6 | 16.9 | 16.9 | 13.3 | 112 | 89.9 | 111 | 10.7 | 3.6 | 96.6 | 100 | 96.4 | 17.4 | -0.4 | 96 | 89.5 | 100 | 6.8 | -0.4 | 86.3 | 94.9 | 80.9 | 21.4 | 4.4 | 100 | 94 | 104 | 31.5 | 2.1 | 0.432 | 0.477 | 0.383 | 0.295 | 0.715
CCC(CC)CC1(C(=O)Nc2ccccc2SC(=O)C(C)C)CCCCC1 [dalcetrapib] | 0 | 0 | 0 | 0 | 0 | 88.6 | 103 | 88 | 98.6 | 90.2 | 96.9 | 97.1 | 108 | 98.3 | 104 | 98.4 | 99.2 | 101 | 102 | 101 | 99.9 | 97.1 | 94.3 | 93.7 | 107 | 96 | 95.4 | 103 | 90 | 97.8 | > 10 | > 10 | > 10 | > 10 | > 10
Cc1nc(Nc2ncc(C(=O)Nc3c(C)cccc3Cl)s2)cc(N2CCN(CCO)CC2)n1 [dasatinib] | 6.2 | 10.3 | 15.9 | 12.9 | 24.7 | 102 | 99 | 87.1 | 80.6 | 30.1 | 100 | 93.9 | 85 | 53.9 | 36.8 | 99 | 93.1 | 76.1 | 29.6 | 16.9 | 101 | 97.6 | 77 | 45.5 | 33.2 | 95.1 | 72 | 36.6 | 30.2 | 18.1 | 1.62 | 0.33 | 0.218 | 0.201 | 0.0245
CCc1cnn2c(NCc3ccc[n+]([O-])c3)cc(N3CCCC[C@H]3CCO)nc12 [dinaciclib] | 34.5 | 35.2 | 27.5 | 28.2 | 21.6 | 99.9 | 55.6 | 5.7 | 6.4 | 6.4 | 99.3 | 56 | 3.6 | 4 | 5.4 | 101 | 100 | 14.8 | 7 | 4.5 | 100 | 77.9 | 19.9 | 25.1 | 30.8 | 103 | 83.2 | 39.9 | 39.3 | 39.6 | 0.0105 | 0.0107 | 0.044 | 0.0147 | 0.0147
CCOC(=S)SSC(=S)OCC [dixanthogen] | 0.1 | 0 | 0 | 0 | 0 | 101 | 111 | 101 | 95.1 | 88.8 | 104 | 99.7 | 100 | 101 | 104 | 97.3 | 95.6 | 91.5 | 90.4 | 97.3 | 104 | 96.3 | 104 | 118 | 104 | 101 | 106 | 104 | 96 | 103 | > 10 | > 10 | > 10 | > 10 | > 10
N[C@H](C(=O)O)[C@H](O)c1ccc(O)c(O)c1 [droxidopa] | 0 | 0 | 0 | 0 | 0 | 90.7 | 95.5 | 98.8 | 114 | 104 | 98 | 95.6 | 97.5 | 97.2 | 100 | 95.1 | 102 | 96.8 | 98.5 | 104 | 95.4 | 102 | 103 | 96.4 | 102 | 98.8 | 98.1 | 99.7 | 87 | 102 | > 10 | > 10 | > 10 | > 10 | > 10
Cc1cc(Cl)ccc1OCCCC(=O)NO [droxinostat] | 0 | 0.6 | 0.3 | 0.1 | 0 | 100 | 92.4 | 90.7 | 97.4 | 87 | 96.9 | 106 | 96.6 | 100 | 79.5 | 103 | 99.4 | 98.8 | 97 | 86.7 | 104 | 101 | 101 | 102 | 86.5 | 96.3 | 92.8 | 88.8 | 97.6 | 86.8 | > 10 | > 10 | > 10 | > 10 | > 10
O=C(NCCCN1CCOCC1)c1ccc(Cl)cc1 [eprobemide] | 0.5 | 0 | 0 | 0 | 0 | 108 | 107 | 88.6 | 110 | 76.6 | 102 | 92.7 | 103 | 97.4 | 99.5 | 92.1 | 96.3 | 100 | 99.1 | 99.6 | 106 | 92.3 | 108 | 103 | 98.8 | 105 | 87.6 | 105 | 92.2 | 103 | > 10 | > 10 | > 10 | > 10 | > 10
O=C(O)CSCC(=O)NC1CCSC1=O (stereo not given) [erdosteine] | 0 | 0 | 0 | 0 | 0 | 90.5 | 102 | 94.3 | 93.8 | 102 | 100 | 105 | 96.2 | 97.9 | 101 | 111 | 96.9 | 104 | 91 | 96.8 | 107 | 102 | 97 | 84.8 | 96.9 | 99.8 | 96 | 102 | 92.9 | 98 | > 10 | > 10 | > 10 | > 10 | > 10
O=C(CN1CCN(Cc2ccc3c(c2)OCO3)CC1)N1c2ccccc2Sc2ccccc21 [fenoverine] | 0 | 0 | 0 | 0.6 | 0 | 94.6 | 104 | 101 | 90 | 90.3 | 95.1 | 97.2 | 98.1 | 94.9 | 96.7 | 87.4 | 98.2 | 98.4 | 95 | 84.7 | 106 | 110 | 105 | 98.5 | 82.7 | 92.8 | 109 | 99.2 | 103 | 110 | > 10 | > 10 | > 10 | > 10 | > 10
CC(=O)OCC(=O)[C@@]12OC(C)(C)O[C@@H]1C[C@H]1[C@@H]3C[C@H](F)C4=CC(=O)C=C[C@]4(C)[C@@]3(F)[C@@H](O)C[C@@]12C [fluocinonide] | 0 | 0 | 0 | 0 | 0 | 100 ± 2.5 | 95.5 ± 6 | 101 ± 8.3 | 104 ± 1.2 | 100 ± 6.2 | 98.5 ± 1.5 | 96 ± 3.3 | 95.2 ± 1.4 | 96.7 ± 4.4 | 98.7 ± 4.3 | 101 ± 7.7 | 93.6 ± 0.57 | 97.9 ± 13 | 96.7 ± 5.4 | 98.5 ± 2.8 | 91.5 | 95.6 | 93.8 | 104 | 99.2 | 102 ± 7.5 | 97.2 ± 6 | 87.8 ± 1.1 | 98.2 ± 3.8 | 101 ± 3.7 | > 10 | > 10 | > 10 | > 10 | > 10
O=c1[nH]cnc2c([C@@H]3N[C@H](CO)[C@@H](O)[C@H]3O)c[nH]c12 [forodesine] | 0 | 0 | 0 | 0 | 0 | 106 | 104 | 110 | 92.6 | 102 | 102 | 97.6 | 94.4 | 103 | 98 | 103 | 96.8 | 96.8 | 97.2 | 94.7 | 103 | 98.4 | 98.4 | 101 | 98.6 | 92.4 | 89 | 97.2 | 91.5 | 94.4 | > 10 | > 10 | > 10 | > 10 | > 10
CC(C)CN(C[C@@H](OP(=O)(O)O)[C@H](Cc1ccccc1)NC(=O)O[C@H]1CCOC1)S(=O)(=O)c1ccc(N)cc1 [fosamprenavir] | 0 | 0 | 0 | 0 | 0 | 99.8 | 106 | 102 | 93.5 | 98.7 | 101 | 94.8 | 95.9 | 94.2 | 109 | 102 | 101 | 99 | 100 | 96.5 | 93.7 | 91.5 | 96.5 | 98.1 | 99.6 | 113 | 103 | 107 | 98.2 | 108 | > 10 | > 10 | > 10 | > 10 | > 10
COc1ccc(/C=C\c2cc(OC)c(OC)c(OC)c2)cc1OP(=O)(O)O [fosbretabulin] | 14.7 | 14.6 | 24.1 | 15.2 | 8.1 | 104 | 108 | 96.7 | 21.9 | 23.9 | 98.4 | 105 | 94 | 25.4 | 19.5 | 103 | 100 | 38.4 | 13 | 7 | 104 | 116 | 55.4 | 51.1 | 45.4 | 104 | 120 | 90.2 | 61.4 | 45.9 | 0.285 | 0.316 | 0.0744 | 0.0584 | 0.457
